How the values were obtained:
Test in all cases: biochemical
[1] = target: T1, panel of 374 wild-type kinases (Homo sapiens, UniProt Q5TCX8); settings: read-out: % Enzyme Activity (relative to DMSO controls), MLK4
T1 construct: purchased Reaction Biology Corporation

[2] = target: T2, panel of 374 wild-type kinases (Homo sapiens, UniProt P43250); settings: read-out: % Enzyme Activity (relative to DMSO controls), GRK6
T2 construct: purchased Reaction Biology Corporation

[3] = target: T3, panel of 374 wild-type kinases (Homo sapiens, UniProt Q13627); settings: read-out: % Enzyme Activity (relative to DMSO controls), DYRK1/DYRK1A
T3 construct: purchased Reaction Biology Corporation

[4] = target: T4, panel of 374 wild-type kinases (Homo sapiens, UniProt Q8IWQ3); settings: read-out: % Enzyme Activity (relative to DMSO controls), BRSK2
T4 construct: purchased Reaction Biology Corporation
T4 sequence (Q8IWQ3 1-736): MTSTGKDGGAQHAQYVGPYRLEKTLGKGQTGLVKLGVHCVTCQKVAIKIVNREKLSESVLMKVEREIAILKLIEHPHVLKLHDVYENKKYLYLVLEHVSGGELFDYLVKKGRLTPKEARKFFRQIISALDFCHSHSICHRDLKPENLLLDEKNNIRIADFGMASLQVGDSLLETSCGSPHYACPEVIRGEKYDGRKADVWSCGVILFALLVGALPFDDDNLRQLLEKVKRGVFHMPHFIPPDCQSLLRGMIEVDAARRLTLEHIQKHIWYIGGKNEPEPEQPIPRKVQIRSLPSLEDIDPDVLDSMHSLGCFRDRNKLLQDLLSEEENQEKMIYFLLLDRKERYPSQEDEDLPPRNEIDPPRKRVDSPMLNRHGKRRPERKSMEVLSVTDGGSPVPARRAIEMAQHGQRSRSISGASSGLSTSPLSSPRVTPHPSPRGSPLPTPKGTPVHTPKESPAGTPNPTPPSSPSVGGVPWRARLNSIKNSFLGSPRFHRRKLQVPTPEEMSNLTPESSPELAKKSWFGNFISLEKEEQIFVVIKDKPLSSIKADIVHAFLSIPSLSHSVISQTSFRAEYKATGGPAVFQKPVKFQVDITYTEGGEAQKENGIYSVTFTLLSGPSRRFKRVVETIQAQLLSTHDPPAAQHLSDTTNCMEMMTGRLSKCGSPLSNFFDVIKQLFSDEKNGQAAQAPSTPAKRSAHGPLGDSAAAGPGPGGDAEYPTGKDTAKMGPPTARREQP

[5] = target: T5, panel of 374 wild-type kinases (Homo sapiens, UniProt O14965); settings: read-out: % Enzyme Activity (relative to DMSO controls), Aurora A
T5 construct: purchased Reaction Biology Corporation
T5 sequence (O14965 1-403): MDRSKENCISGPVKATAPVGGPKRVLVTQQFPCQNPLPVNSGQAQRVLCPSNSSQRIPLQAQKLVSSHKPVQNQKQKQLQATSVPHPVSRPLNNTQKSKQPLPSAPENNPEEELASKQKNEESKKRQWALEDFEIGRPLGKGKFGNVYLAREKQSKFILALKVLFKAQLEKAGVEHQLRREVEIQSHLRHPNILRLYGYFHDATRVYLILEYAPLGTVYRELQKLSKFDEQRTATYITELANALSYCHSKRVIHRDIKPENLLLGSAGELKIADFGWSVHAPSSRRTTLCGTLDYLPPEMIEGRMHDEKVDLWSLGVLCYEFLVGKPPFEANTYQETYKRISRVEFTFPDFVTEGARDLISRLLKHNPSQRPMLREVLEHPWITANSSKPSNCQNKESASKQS

[6] = target: T6, panel of 374 wild-type kinases (Homo sapiens, UniProt P53350); settings: read-out: % Enzyme Activity (relative to DMSO controls), kinase PLK1
T6 construct: purchased Reaction Biology Corporation

[7] = target: T7, panel of 374 wild-type kinases (Homo sapiens, UniProt O60285); settings: read-out: % Enzyme Activity (relative to DMSO controls), ARK5/NUAK1
T7 construct: purchased Reaction Biology Corporation
T7 sequence (O60285 1-661): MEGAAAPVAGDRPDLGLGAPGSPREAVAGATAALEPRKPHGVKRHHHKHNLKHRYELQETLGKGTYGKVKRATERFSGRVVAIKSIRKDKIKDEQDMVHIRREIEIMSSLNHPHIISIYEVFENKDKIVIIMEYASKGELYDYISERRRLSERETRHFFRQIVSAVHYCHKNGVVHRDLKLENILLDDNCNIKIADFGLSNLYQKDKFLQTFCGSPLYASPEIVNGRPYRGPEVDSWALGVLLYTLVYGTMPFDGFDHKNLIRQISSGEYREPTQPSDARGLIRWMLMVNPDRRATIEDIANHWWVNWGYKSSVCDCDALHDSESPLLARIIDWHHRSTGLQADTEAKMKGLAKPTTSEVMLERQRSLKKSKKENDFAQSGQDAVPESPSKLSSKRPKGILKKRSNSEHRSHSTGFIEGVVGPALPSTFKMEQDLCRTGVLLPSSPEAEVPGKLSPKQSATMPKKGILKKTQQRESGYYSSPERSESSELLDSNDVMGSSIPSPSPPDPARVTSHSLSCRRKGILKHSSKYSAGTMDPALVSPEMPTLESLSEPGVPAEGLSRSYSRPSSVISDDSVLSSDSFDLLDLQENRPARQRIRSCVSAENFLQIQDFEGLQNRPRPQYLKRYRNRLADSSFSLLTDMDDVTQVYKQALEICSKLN

[8] = target: T8, panel of 374 wild-type kinases (Homo sapiens, UniProt Q9BUB5); settings: read-out: % Enzyme Activity (relative to DMSO controls), MNK1
T8 construct: purchased Reaction Biology Corporation
T8 sequence (Q9BUB5 whole entry): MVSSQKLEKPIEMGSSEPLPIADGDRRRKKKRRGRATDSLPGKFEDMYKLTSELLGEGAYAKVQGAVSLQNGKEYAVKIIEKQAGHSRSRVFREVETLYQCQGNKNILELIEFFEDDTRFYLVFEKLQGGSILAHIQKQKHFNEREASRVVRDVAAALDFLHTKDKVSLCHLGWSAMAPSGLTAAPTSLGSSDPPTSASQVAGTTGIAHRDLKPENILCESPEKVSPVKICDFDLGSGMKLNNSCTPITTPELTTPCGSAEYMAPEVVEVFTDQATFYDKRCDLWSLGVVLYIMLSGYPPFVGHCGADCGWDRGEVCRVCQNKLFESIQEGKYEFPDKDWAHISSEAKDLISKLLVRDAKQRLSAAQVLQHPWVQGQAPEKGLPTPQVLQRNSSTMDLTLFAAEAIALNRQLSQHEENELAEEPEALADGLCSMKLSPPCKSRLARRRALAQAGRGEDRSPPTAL

[9] = target: T9, panel of 374 wild-type kinases (Homo sapiens, UniProt P23458); settings: read-out: % Enzyme Activity (relative to DMSO controls), JAK1
T9 construct: purchased Reaction Biology Corporation
T9 sequence (P23458 whole entry): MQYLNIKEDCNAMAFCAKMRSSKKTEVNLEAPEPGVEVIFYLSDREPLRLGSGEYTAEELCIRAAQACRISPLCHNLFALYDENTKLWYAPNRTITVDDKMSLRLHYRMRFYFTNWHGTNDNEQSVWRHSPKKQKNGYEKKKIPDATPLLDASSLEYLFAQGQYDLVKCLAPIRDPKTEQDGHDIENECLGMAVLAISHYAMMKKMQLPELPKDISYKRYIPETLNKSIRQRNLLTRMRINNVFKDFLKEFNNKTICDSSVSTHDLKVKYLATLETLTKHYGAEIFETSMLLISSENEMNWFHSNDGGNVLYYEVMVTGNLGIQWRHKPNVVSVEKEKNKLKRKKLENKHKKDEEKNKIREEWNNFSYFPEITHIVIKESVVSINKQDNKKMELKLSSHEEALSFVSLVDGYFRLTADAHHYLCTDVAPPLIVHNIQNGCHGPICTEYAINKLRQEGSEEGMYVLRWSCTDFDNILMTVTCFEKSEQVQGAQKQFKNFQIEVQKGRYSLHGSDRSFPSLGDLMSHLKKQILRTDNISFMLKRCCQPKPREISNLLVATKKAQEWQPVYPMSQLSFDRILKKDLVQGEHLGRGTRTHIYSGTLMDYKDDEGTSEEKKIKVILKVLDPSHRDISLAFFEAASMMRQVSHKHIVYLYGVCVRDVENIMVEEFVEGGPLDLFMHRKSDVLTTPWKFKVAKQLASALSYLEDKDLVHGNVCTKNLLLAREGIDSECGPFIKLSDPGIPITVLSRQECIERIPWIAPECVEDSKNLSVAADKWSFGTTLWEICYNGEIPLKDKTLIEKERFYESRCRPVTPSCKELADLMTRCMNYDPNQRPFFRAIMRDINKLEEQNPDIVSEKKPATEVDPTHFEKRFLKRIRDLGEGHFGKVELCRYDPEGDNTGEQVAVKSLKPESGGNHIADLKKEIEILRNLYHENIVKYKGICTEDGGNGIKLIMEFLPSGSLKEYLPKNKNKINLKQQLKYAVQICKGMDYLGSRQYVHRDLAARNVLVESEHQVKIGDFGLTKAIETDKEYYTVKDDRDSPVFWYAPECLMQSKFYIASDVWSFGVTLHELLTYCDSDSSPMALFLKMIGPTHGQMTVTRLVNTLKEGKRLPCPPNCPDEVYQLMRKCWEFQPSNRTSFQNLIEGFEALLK

[10] = target: T10, panel of 374 wild-type kinases (Homo sapiens, UniProt O75582); settings: read-out: % Enzyme Activity (relative to DMSO controls), MSK1/RPS6KA5
T10 construct: purchased Reaction Biology Corporation
T10 sequence (O75582 whole entry): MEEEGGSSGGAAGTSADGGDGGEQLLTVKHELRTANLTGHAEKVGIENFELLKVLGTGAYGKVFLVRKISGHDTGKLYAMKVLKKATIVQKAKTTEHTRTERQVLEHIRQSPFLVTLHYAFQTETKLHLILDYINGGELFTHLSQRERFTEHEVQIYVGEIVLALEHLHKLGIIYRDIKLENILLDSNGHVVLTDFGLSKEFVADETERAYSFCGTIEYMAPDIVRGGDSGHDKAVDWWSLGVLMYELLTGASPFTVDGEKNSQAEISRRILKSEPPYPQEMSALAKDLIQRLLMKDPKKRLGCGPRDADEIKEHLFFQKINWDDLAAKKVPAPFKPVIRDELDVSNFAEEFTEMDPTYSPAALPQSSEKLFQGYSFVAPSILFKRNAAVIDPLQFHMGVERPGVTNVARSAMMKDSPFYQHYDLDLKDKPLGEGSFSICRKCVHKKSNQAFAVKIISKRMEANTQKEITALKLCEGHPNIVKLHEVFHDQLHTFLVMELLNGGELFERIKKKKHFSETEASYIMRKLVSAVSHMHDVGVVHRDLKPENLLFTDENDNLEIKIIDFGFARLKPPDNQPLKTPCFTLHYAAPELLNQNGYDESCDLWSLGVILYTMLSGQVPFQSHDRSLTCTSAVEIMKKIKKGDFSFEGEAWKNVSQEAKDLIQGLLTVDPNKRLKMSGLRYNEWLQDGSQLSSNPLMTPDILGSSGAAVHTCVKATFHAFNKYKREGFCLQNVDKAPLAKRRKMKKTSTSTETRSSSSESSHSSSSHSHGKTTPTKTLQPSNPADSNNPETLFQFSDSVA

[11] = target: T11, panel of 374 wild-type kinases (Homo sapiens, UniProt P49840); settings: read-out: % Enzyme Activity (relative to DMSO controls), GSK3a
T11 construct: purchased Reaction Biology Corporation
T11 sequence (P49840 whole entry): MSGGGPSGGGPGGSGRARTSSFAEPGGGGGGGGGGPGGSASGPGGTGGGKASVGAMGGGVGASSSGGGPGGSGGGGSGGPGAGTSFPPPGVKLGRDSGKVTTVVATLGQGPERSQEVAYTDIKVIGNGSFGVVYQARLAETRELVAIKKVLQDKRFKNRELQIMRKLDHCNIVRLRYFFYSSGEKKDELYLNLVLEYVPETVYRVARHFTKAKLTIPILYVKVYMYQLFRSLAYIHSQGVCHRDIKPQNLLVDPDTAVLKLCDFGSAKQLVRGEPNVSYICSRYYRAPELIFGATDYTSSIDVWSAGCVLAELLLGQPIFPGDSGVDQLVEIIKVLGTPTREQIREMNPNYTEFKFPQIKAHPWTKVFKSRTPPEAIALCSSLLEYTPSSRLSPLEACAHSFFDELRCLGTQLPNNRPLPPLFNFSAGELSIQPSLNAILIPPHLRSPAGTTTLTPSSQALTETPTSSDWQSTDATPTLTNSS

[12] = target: T12, panel of 374 wild-type kinases (Homo sapiens, UniProt Q07912); settings: read-out: % Enzyme Activity (relative to DMSO controls), ACK1
T12 construct: purchased Reaction Biology Corporation

T2 sequence (P43250 whole entry): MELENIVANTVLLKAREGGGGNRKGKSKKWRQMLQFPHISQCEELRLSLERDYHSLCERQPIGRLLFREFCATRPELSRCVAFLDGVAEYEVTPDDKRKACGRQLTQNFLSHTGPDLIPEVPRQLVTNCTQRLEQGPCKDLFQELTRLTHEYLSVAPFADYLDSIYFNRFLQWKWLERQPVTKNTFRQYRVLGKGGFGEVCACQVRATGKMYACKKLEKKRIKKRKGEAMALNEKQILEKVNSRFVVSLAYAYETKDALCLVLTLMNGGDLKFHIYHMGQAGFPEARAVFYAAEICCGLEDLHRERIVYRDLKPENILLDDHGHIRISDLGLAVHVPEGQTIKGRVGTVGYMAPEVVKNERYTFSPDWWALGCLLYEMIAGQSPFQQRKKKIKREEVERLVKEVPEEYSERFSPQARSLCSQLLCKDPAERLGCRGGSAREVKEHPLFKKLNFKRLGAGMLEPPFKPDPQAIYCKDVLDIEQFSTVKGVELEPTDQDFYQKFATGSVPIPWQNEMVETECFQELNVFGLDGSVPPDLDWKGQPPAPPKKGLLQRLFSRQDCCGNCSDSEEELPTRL
T1 sequence (Q5TCX8 whole entry): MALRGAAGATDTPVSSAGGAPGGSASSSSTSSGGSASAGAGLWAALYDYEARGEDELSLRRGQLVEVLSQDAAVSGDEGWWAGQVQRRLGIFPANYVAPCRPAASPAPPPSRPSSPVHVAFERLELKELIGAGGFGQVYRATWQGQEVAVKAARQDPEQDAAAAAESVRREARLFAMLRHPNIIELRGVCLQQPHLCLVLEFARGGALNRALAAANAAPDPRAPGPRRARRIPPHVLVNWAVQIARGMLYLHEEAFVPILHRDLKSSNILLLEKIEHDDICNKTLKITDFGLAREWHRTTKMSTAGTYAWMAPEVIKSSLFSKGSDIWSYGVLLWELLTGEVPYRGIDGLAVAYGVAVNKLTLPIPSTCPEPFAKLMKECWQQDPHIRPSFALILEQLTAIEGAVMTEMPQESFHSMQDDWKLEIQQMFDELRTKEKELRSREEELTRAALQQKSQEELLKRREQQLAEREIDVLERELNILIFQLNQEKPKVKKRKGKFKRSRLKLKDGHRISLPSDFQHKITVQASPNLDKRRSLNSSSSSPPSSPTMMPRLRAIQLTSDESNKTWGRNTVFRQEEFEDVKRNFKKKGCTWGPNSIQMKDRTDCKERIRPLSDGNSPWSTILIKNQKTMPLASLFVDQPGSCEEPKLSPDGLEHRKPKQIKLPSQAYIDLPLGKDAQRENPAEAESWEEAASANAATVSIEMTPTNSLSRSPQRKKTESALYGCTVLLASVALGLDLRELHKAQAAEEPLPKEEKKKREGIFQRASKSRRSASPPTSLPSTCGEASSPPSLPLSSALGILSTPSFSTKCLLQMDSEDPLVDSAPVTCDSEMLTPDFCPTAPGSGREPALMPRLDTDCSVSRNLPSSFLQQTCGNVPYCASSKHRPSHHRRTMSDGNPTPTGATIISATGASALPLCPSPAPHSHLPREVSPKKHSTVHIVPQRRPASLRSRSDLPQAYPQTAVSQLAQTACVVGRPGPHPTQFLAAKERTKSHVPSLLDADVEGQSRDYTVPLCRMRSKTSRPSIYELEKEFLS

| SMILES | remaining activity at 5 µM [1] [%] | remaining activity at 5 µM [2] [%] | remaining activity at 5 µM [3] [%] | remaining activity at 5 µM [4] [%] | remaining activity at 5 µM [5] [%] | remaining activity at 5 µM [6] [%] | remaining activity at 5 µM [7] [%] | remaining activity at 5 µM [8] [%] | remaining activity at 5 µM [9] [%] | remaining activity at 5 µM [10] [%] | remaining activity at 5 µM [11] [%] | remaining activity at 5 µM [12] [%] | also measured |
| --- | --- | --- | --- | --- | --- | --- | --- | --- | --- | --- | --- | --- | --- |
| O=C(Nc1cnn(-c2csc(C(=O)NC3COC3)c2)c1)Nc1ccccc1Cl [Compound 17, 4-(4-(3-(2-chlorophenyl)ureido)-1H-pyrazol-1-yl)-N-(oxetan-3-yl)thiophene-2-carboxamide] | 93.2 | 97.9 | 86 | 102 | 105 | 97 | 97.9 | 94.3 | 98.7 | 89.5 | 97.4 | 85.6 | – |
| O=C(Nc1cnn(-c2csc(C(=O)NC3COC3)c2)c1)Nc1c(F)cccc1Cl [Compound 25, 4-(4-(3-(2-chloro-6-fluorophenyl)ureido)-1H-pyrazol-1-yl)-N-(oxetan-3-yl)thiophene-2-carboxamide] | 94.3 | 102 | 75.1 | 100 | 83.1 | 95.5 | 95.2 | 103 | 107 | 104 | 93.5 | 94.6 | – |
| Cc1sc(C(=O)NC2COC2)cc1-n1cc(NC(=O)Nc2c(F)cccc2Cl)cn1 [Compound 27, 4-(4-(3-(2-chloro-6-fluorophenyl)ureido)-1H-pyrazol-1-yl)-5-methyl-N-(oxetan-3-yl)thiophene-2-carboxamide] | – | – | – | – | – | – | – | – | – | – | – | – | remaining activity at 10 µM ([1]; 10 uM): 85.2%; remaining activity at 10 µM ([2]; 10 uM): 91.5%; remaining activity at 10 µM ([3]; 10 uM): 95.5%; remaining activity at 10 µM ([4]; 10 uM): 102%; remaining activity at 10 µM ([5]; 10 uM): 88.4%; remaining activity at 10 µM ([6]; 10 uM): 104%; remaining activity at 10 µM ([7]; 10 uM): 96.9%; remaining activity at 10 µM ([8]; 10 uM): 94.2%; remaining activity at 10 µM ([9]; 10 uM): 72.2%; remaining activity at 10 µM ([10]; 10 uM): 111%; remaining activity at 10 µM ([11]; 10 uM): 128%; remaining activity at 10 µM ([12]; 10 uM): 106% |

Source: patent publication US20240246942A1, “KINASE INHIBITORS FOR THE TREATMENT OF NEURODEGENERATIVE DISEASES” (priority 2020, published 2024)
